Data on 35 substances can be found in patent publication US9999659B2, “Treatments using a peptide and/or vaccine” (AFFIRIS AG, priority 2012, dated 2018).

For assay [1], the system named is polyclonal antibodies specific for human PCSK9 aa 153-162 or aa 153-165. The assay is described as follows: Binding ELISA: mimotopes coated on plates, detected by mouse sera raised against the original PCSK9 sequence. The conditions noted are these: mimotope coated at 1 μmol/mL; titer = serum dilution where 50% of ODmax is reached. From the text:
FIGS. 1A and 1B show detection of PCSK9 mimotopes sequences by mouse sera containing polyclonal antibodies specific for human PCSK9 aa 153-162 or aa 153-165
The graphs display median titers from all mimotopes compared to the irrelevant negative control. As a positive control the original human PCSK9 sequence is included: aa 153-162 or aa 153-165. Mimotopes with values over 1:50.000 are considered as good candidates.
Mimotopes were coated on ELISA plates at a concentration of 1 μmol/mL. After blocking unspecific binding (1% BSA in PBS) appropriate dilutions of sera from mice injected with the original human PCSK9 sequence aa 153-162 or aa 153-165 (SEQ ID No. 3) were added and incubated for approximately 1 hour. Subsequently, detection with anti-mouse IgG antibodies was performed. ABTS was used as substrate. OD measurements were performed at 405 nm and titers were defined as the dilution of the serum where 50% of the ODmax is reached.
In general terms: In an ELISA, binding on a coated surface is turned into a signal by an enzyme label.

The test system of assay [2] is polyclonal antibodies in mouse sera raised against original PCSK9 sequence (aa 153-162 or aa 153-165). The assay is described as follows: Competition ELISA: mimotope competes with the original PCSK9 sequence for binding of polyclonal antibodies in mouse sera. As to conditions: 20 μg peptide incubated with sera; irrelevant peptide = 0% competition. From the text:
FIGS. 2A and 2B show the ability of PCSK9 mimotopes to compete with the original PCSK9 sequence (aa 153-162 or aa 153-165) for binding polyclonal antibodies in mouse sera raised specifically against the latter.
All mimotopes are compared to the negative group (0% competition by an irrelevant peptide). As a positive control for each competition ELISA the original PCSK9 sequences were used (aa 153-162 or aa 153-165).
The graphs display the ability (in percent) of the mimotopes to compete with the original PCSK9 sequence (aa 153-162 or aa 153-165) for binding polyclonal antibodies raised against the latter.
20 μg of each indicated peptide was incubated with sera from mice injected with original PCSK9 sequence (aa 153-162 or aa 153-165: SEQ ID No. 2). Sera were then incubated on ELISA plates coated with the original PCSK9 sequence (aa 153-162 or aa 153-165: SEQ ID No. 2). Detection was performed with anti-mouse IgG antibodies, ABTS was used as a chromogenic substrate and optical density (OD) was measured at 405 nm.
Mimotopes diminishing >20% subsequent binding of the polyclonal antibodies from the sera to the original human PCSK9 epitope (aa 153-162 or 153-165: SEQ ID No. 3) coated on the ELISA plates were considered as competing mimotopes and as good candidates.

Consider “39 (SIPWNLERIL; Artificial Sequence, Mimotope) [compound 39]”, for which, in assay [1], the “Median Titer Binding ELISA (ODmax/2)” value is given as 168,000. Besides, the “% Competition compared to the related control group” value (from here on “% Competition”) in assay [2] is recorded as 56%.

As to “40 (SIPWNLERIQ; Artificial Sequence, Mimotope) [compound 40]”, the “Median Titer Binding ELISA (ODmax/2)” value in assay [1] was 181,000. Besides, the “% Competition” value in assay [2] is recorded as 64%.

Turning to “41 (SIPWNLERIA; Artificial Sequence, Mimotope) [compound 41]”, in assay [1], the “Median Titer Binding ELISA (ODmax/2)” value is recorded as 189,000. The “% Competition” value in assay [2] turned out to be 80%.

For “42 (SIPWNLERISPPR; Artificial Sequence, Mimotope) [compound 42]”, the “Median Titer Binding ELISA (ODmax/2)” value in assay [1] is on record as 719,000. Further, the “% Competition” value in assay [2] stood at 79%.

For “43 (SIPWNLERITAPR; Artificial Sequence, Mimotope) [compound 43]”, the “Median Titer Binding ELISA (ODmax/2)” value in assay [1] is reported as 226,000. Further, the “% Competition” value in assay [2] is reported as 70%.

On to “44 (SIPWNLERITSPR; Artificial Sequence, Mimotope) [compound 44]”, for which the “Median Titer Binding ELISA (ODmax/2)” value in assay [1] is listed as 153,000. Also, the “% Competition” value in assay [2] is 68%.

As to “45 (SIPWNLERITPAR; Artificial Sequence, Mimotope) [compound 45]”, in assay [1], the “Median Titer Binding ELISA (ODmax/2)” value is recorded as 184,000. Further, the “% Competition” value in assay [2] is reported as 74%.

As for “46 (SIPWNLERITPVR; Artificial Sequence, Mimotope) [compound 46]”, the “Median Titer Binding ELISA (ODmax/2)” value in assay [1] was 265,000. The “% Competition” value in assay [2] is on record as 75%.

Consider “47 (SIPWNLERITPTR; Artificial Sequence, Mimotope) [compound 47]”, for which the “Median Titer Binding ELISA (ODmax/2)” value in assay [1] is given as 155,000. For the same substance, in assay [2], the “% Competition” value is 73%.

“48 (SIPWNLERITPNR; Artificial Sequence, Mimotope) [compound 48]”: the “Median Titer Binding ELISA (ODmax/2)” value in assay [1] is listed as 186,000. Further, in assay [2], the “% Competition” value is given as 70%.

Regarding “49 (SIPWNLERITPPA; Artificial Sequence, Mimotope) [compound 49]”, the “Median Titer Binding ELISA (ODmax/2)” value in assay [1] is listed as 163,000. Besides, the “% Competition” value in assay [2] is recorded as 65%.

“50 (SIPWNLERITPPK; Artificial Sequence, Mimotope) [compound 50]”: the “Median Titer Binding ELISA (ODmax/2)” value in assay [1] is listed as 158,000. In addition, in assay [2], the “% Competition” value was found to be 66%.

As to “51 (SIPWNLERITPPS; Artificial Sequence, Mimotope) [compound 51]”, the “Median Titer Binding ELISA (ODmax/2)” value in assay [1] is 149,000. In addition, in assay [2], the “% Competition” value worked out at 66%.

Take “52 (SIPWNLERITPPL; Artificial Sequence, Mimotope) [compound 52]”: the “Median Titer Binding ELISA (ODmax/2)” value in assay [1] is recorded as 139,000. Also, the “% Competition” value in assay [2] was found to be 66%.

With “53 (VIPWNLERLT; Artificial Sequence, Mimotope) [compound 53]”, the “Median Titer Binding ELISA (ODmax/2)” value in assay [1] is recorded as 191,000. Also, the “% Competition” value in assay [2] stood at 54%.

Consider “54 (VIPWNLERTT; Artificial Sequence, Mimotope) [compound 54]”, for which the “Median Titer Binding ELISA (ODmax/2)” value in assay [1] was 162,000. Besides, in assay [2], the “% Competition” value came out at 69%.

Take “55 (VIPWNLERIL; Artificial Sequence, Mimotope) [compound 55]”: in assay [1], the “Median Titer Binding ELISA (ODmax/2)” value is 173,000. Also, the “% Competition” value in assay [2] came to 49%.

Turning to “56 (VIPWNLERIQ; Artificial Sequence, Mimotope) [compound 56]”, in assay [1], the “Median Titer Binding ELISA (ODmax/2)” value is 166,000. Besides, the “% Competition” value in assay [2] came to 47%.

On to “57 (SVPWNLERLT; Artificial Sequence, Mimotope) [compound 57]”, for which, in assay [1], the “Median Titer Binding ELISA (ODmax/2)” value is 154,000. For the same substance, the “% Competition” value in assay [2] came to 57%.

As to “58 (SVPWNLERTT; Artificial Sequence, Mimotope) [compound 58]”, the “Median Titer Binding ELISA (ODmax/2)” value in assay [1] is recorded as 116,000. Further, the “% Competition” value in assay [2] amounted to 73%.

Consider “59 (SVPWNLERIL; Artificial Sequence, Mimotope) [compound 59]”, for which the “Median Titer Binding ELISA (ODmax/2)” value in assay [1] is on record as 188,000. The “% Competition” value in assay [2] was found to be 59%.

On to “60 (SVPWNLERIQ; Artificial Sequence, Mimotope) [compound 60]”, for which the “Median Titer Binding ELISA (ODmax/2)” value in assay [1] is 222,000. Also, the “% Competition” value in assay [2] came out at 61%.

“61 (SQPWNLERLT; Artificial Sequence, Mimotope) [compound 61]”: the “Median Titer Binding ELISA (ODmax/2)” value in assay [1] was 200,000. Also, the “% Competition” value in assay [2] is 69%.

Turning to “62 (SQPWNLERIL; Artificial Sequence, Mimotope) [compound 62]”, in assay [1], the “Median Titer Binding ELISA (ODmax/2)” value is on record as 196,000. Also, the “% Competition” value in assay [2] was determined as 69%.

On to “63 (SQPWNLERIQ; Artificial Sequence, Mimotope) [compound 63]”, for which the “Median Titer Binding ELISA (ODmax/2)” value in assay [1] is given as 167,000. Further, the “% Competition” value in assay [2] worked out at 66%.

On to “64 (SIPWSLERLT; Artificial Sequence, Mimotope) [compound 64]”, for which the “Median Titer Binding ELISA (ODmax/2)” value in assay [1] is reported as 164,000. Moreover, in assay [2], the “% Competition” value is recorded as 46%.

Regarding “65 (SIPWSLERTT; Artificial Sequence, Mimotope) [compound 65]”, the “Median Titer Binding ELISA (ODmax/2)” value in assay [1] was 147,000. The “% Competition” value in assay [2] was 64%.

On to “66 (SIPWSLERIL; Artificial Sequence, Mimotope) [compound 66]”, for which the “Median Titer Binding ELISA (ODmax/2)” value in assay [1] is 199,000. For the same substance, the “% Competition” value in assay [2] is listed as 46%.

For the substance “67 (SIPWSLERIQ; Artificial Sequence, Mimotope) [compound 67]”, the “Median Titer Binding ELISA (ODmax/2)” value in assay [1] is 223,000. Also, in assay [2], the “% Competition” value is on record as 44%.

Regarding “68 (VQPWSLERTL; Artificial Sequence, Mimotope) [compound 68]”, the “Median Titer Binding ELISA (ODmax/2)” value in assay [1] is listed as 95,000. The “% Competition” value in assay [2] is 48%.

For the substance “69 (SQPWSLERTL; Artificial Sequence, Mimotope) [compound 69]”, in assay [1], the “Median Titer Binding ELISA (ODmax/2)” value is given as 98,000. Besides, the “% Competition” value in assay [2] amounted to 53%.

For the substance “70 (SVPWNLEKLT; Artificial Sequence, Mimotope) [compound 70]”, in assay [1], the “Median Titer Binding ELISA (ODmax/2)” value is 47,000. For the same substance, in assay [2], the “% Competition” value came out at 11%.

In the case of “71 (VQPWNLERLQ; Artificial Sequence, Mimotope) [compound 71]”, the “Median Titer Binding ELISA (ODmax/2)” value in assay [1] was 184,000. The “% Competition” value in assay [2] stood at 72%.

“72 (VQPWSLERLL; Artificial Sequence, Mimotope) [compound 72]”: in assay [1], the “Median Titer Binding ELISA (ODmax/2)” value was 166,000. Also, in assay [2], the “% Competition” value is recorded as 66%.

With “73 (SVPWSLERLT; Artificial Sequence, Mimotope) [compound 73]”, the “Median Titer Binding ELISA (ODmax/2)” value in assay [1] is reported as 251,000. The “% Competition” value in assay [2] was 74%.
